Holding throughout (type): biochemical
For one experiment, the target named is JAK2 (Homo sapiens (Human), UniProt O60674). The experiment is described as follows: JAK kinase assay (HTRF), JAK2. The note with it: catalytic domain, ATP at Km (4 μM). As for the experimental part: (§1) Human baculovirus-expressed JAK1, 2, 3 and TYK2 were purchased from Carna Biosciences, Inc. All four purified enzymes contain only the catalytic domain. JAK1 (aa 850-1154) and TYK2 (aa 871-1187) are expressed with an N-terminally fused GST-tag, and JAK2 and JAK3 with an N-terminally fused His-tag.
Chain of JAK2 (O60674 849-1124): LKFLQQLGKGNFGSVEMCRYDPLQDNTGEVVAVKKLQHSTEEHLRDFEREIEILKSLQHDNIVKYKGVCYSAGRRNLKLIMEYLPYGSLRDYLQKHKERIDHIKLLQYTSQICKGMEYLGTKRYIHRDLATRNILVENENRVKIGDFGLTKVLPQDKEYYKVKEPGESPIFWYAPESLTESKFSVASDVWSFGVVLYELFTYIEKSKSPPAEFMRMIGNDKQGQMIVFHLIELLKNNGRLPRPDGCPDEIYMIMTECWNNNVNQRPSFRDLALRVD
(§2) Inhibition of phosphorylation of a synthetic peptide was measured in an HTRF-based assay using the TK substrate-Biotin from the Cisbio HTRFKinEASE TK kit. First, 2 μl of TK solution (TK substrate-biotin in kinase buffer [1× enzymatic buffer from HTRFKinEASE TK kit, 1 mM DTT]) is added to a plate containing 1 μl prediluted compound (final assay concentration DMSO: 0.75%). Then, 5 μl kinase-ATP mix (prepared in kinase buffer) is added to the wells and the plates are incubated at RT for 20-30 min. For all four kinases a concentration of ATP that corresponded to the Km for ATP was used. The final concentrations of buffers, substrate, kinase and ATP were: JAK1: 50 mM Hepes buffer pH 7.0, 0.01% BSA, 10 mM MgCl2, 1 mM DTT, 7 μM ATP, 50 nM SEB, 1 μM TK Substrate-Biotin and 5 ng JAK1; JAK2: 50 mM Hepes buffer pH 7.0, 0.01% BSA, 5 mM MgCl2, 1 mM DTT, 4 μM ATP, 1 μM TK Substrate-Biotin and 0.1 ng JAK2; JAK3: 50 mM Hepes buffer pH 7.0, 0.01% BSA, 5 mM MgCl2, 1 mM DTT, 2 μM ATP, 1 μM TK Substrate-Biotin and 0.3 ng JAK3; TYK2: 50 mM Hepes buffer pH 7.0, 0.01% BSA, 5 mM MgCl2, 1 mM DTT, 13 μM ATP, 50 nM SEB, 1 μM TK Substrate-Biotin and 0.8 ng TYK2. Thereafter, the kinase reaction is stopped by adding 4 μl detection mix (final concentrations: 50 mM Hepes buffer pH 7.0, 0.01% BSA, 0.8 M KF, 20 mM EDTA, 42 nM Streptavidin-XL665 and 1:400 STK Ab Cryptate) and the plates are incubated overnight in the dark. The HTRF signal is read using an Envision plate reader.
Background: Time-resolved FRET reads energy transfer from a long-lived donor to a nearby acceptor.

For a further experiment, the target named is JAK1 (Homo sapiens (Human), UniProt P23458). Put plainly: JAK kinase assay (HTRF), JAK1. The note with it: catalytic domain, ATP at Km (7 μM). As for the experimental part: as §1, §2
Chain of JAK1 (P23458 850-1154): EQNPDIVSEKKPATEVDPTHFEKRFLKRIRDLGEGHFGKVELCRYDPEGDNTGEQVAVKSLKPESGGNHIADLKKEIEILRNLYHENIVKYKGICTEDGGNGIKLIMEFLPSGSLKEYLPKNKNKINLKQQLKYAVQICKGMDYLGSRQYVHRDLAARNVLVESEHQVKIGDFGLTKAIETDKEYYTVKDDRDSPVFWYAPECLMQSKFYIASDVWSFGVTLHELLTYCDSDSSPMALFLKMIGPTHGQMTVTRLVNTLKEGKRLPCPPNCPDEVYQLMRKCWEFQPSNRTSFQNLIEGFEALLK
A further experiment deals with TYK2 (Homo sapiens (Human), UniProt P29597). The experiment is described as follows: JAK kinase assay (HTRF), TYK2. The note with it: catalytic domain, ATP at Km (13 μM). As for the experimental part:
as §1, §2
(§3) In Table 1 selected JAK kinase inhibitory activities are listed along with analytical tR and observed M+H^+ data (UPLC-MS method 7).

A further experiment deals with JAK3 (Homo sapiens (Human), UniProt P52333). The experiment is described as follows: JAK kinase assay (HTRF), JAK3. Conditions: catalytic domain, ATP at Km (2 μM). As for the experimental part:
as §1, §2, §3

Chain of TYK2 (P29597 871-1187): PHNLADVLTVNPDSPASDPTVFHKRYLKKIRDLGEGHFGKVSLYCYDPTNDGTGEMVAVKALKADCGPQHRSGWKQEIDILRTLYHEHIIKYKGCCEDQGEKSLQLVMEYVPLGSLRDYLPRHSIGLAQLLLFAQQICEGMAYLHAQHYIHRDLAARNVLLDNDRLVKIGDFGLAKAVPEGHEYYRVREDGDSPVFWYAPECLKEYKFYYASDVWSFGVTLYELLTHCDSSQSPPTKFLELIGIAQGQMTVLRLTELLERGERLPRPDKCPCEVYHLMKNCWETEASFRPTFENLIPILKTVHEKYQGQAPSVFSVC
Chain of JAK3 (P52333 822-1111): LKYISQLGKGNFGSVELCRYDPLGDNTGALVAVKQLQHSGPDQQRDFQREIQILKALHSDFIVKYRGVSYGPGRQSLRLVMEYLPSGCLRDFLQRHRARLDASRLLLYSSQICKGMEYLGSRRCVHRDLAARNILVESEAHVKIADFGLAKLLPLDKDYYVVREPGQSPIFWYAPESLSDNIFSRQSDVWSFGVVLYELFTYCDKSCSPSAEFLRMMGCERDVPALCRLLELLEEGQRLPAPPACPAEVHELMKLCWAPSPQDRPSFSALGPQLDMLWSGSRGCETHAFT

A word on the EC50: it is the concentration at which the effect is half-maximal. A low value points to higher potency in that assay. Regarding `Cc1cc([C@H](O)[C@H](C)NC(=O)[C@H]2CCN(c3ncnc4[nH]ccc34)CC23CC3)ncc1F` [Example 75, (8S)-N-[(1S,2R)-2-(5-fluoro-4-methyl-2-pyridyl)-2-hydroxy-1-methyl-ethyl]-5-(7H-pyrrolo[2,3-d]pyrimidin-4-yl)-5-azaspiro[2.5]octane-8-carboxamide], the EC50 turned out to be 16.3 nM at JAK2, 6.1 nM on JAK1, 50.2 nM at TYK2 and 102 nM on JAK3.

In the case of `O=C(NCc1ccncc1)C1CCN(c2ncnc3[nH]ccc23)CC12CC2` (centres unmarked) [Example 85, N-(4-pyridylmethyl)-5-(7H-pyrrolo[2,3-d]pyrimidin-4-yl)-5-azaspiro[2.5]octane-8-carboxamide], the EC50 at JAK2 is 28.7 nM; on JAK1, 7.1 nM; at TYK2 it was 798 nM; on JAK3, 42.8 nM.

With `N#Cc1cccc([C@H](O)CNC(=O)[C@H]2CCN(c3ncnc4[nH]ccc34)CC23CC3)c1` [Example 106, (8S)-N-[(2S)-2-(3-cyanophenyl)-2-hydroxy-ethyl]-5-(7H-pyrrolo[2,3-d]pyrimidin-4-yl)-5-azaspiro[2.5]octane-8-carboxamide], the EC50 turned out to be 25.2 nM on JAK2, 10.2 nM on JAK1, 110 nM at TYK2 and 44.7 nM at JAK3.

As for `COc1ccc(CNC(=O)C2CCN(c3ncnc4[nH]ccc34)CC23CC3)cc1` (centres unmarked) [Example 90, N-[(4-methoxyphenyl)methyl]-5-(7H-pyrrolo[2,3-d]pyrimidin-4-yl)-5-azaspiro[2.5]octane-8-carboxamide], the EC50 came to 19.6 nM at JAK2, 8.2 nM on JAK1, 288 nM at TYK2 and 34.5 nM at JAK3.

For `C[C@](CO)(NC(=O)[C@H]1CCN(c2ncnc3[nH]ccc23)CC12CC2)c1ccc(C#N)cn1` [Example 78, (8S)-N-[(1S)-1-(5-cyano-2-pyridyl)-2-hydroxy-1-methyl-ethyl]-5-(7H-pyrrolo[2,3-d]pyrimidin-4-yl)-5-azaspiro[2.5]octane-8-carboxamide], the EC50 was 17 nM on JAK2, 6.3 nM on JAK1, 231 nM on TYK2 and 39.4 nM on JAK3.

As to `O=C(N[C@H](CO)c1ccccn1)[C@H]1CCN(c2ncnc3[nH]ccc23)CC12CC2` [Example 135, (8S)-N-[(1S)-2-hydroxy-1-(2-pyridyl)ethyl]-5-(7H-pyrrolo[2,3-d]pyrimidin-4-yl)-5-azaspiro[2.5]octane-8-carboxamide], the EC50 at JAK2 stood at 83.8 nM; on JAK1, 33.2 nM; on TYK2, 466 nM; at JAK3 it was 148 nM.

On to `O=C(NCC1(CO)CC(F)(F)C1)[C@H](O)CNC(=O)[C@H]1CCN(c2ncnc3[nH]ccc23)CC12CC2` [Example 129, (8S)-N-[(2R)-3-[[3,3-difluoro-1-(hydroxymethyl)cyclobutyl]methylamino]-2-hydroxy-3-oxo-propyl]-5-(7H-pyrrolo[2,3-d]pyrimidin-4-yl)-5-azaspiro[2.5]octane-8-carboxamide], for which the EC50 on JAK2 is 37.6 nM; at JAK1, 21.2 nM; on TYK2, 385 nM; at JAK3, 41.1 nM.

As to `O=C(N[C@@H](CO)c1ccc(F)cc1CO)[C@H]1CCN(c2ncnc3[nH]ccc23)CC12CC2` [Example 100, (8S)-N-[(1R)-1-[4-fluoro-2-(hydroxymethyl)phenyl]-2-hydroxy-ethyl]-5-(7H-pyrrolo[2,3-d]pyrimidin-4-yl)-5-azaspiro[2.5]octane-8-carboxamide], the EC50 was 37.3 nM at JAK2, 9.1 nM at JAK1, 248 nM on TYK2 and 71.9 nM at JAK3.

For the molecule `N#CCC1(CNC(=O)C2CCN(c3ncnc4[nH]ccc34)CC23CC3)CC1` (centres unmarked) [Example 112, N-[[1-(cyanomethyl)cyclopropyl]methyl]-5-(7H-pyrrolo[2,3-d]pyrimidin-4-yl)-5-azaspiro[2.5]octane-8-carboxamide], the EC50 on JAK2 turned out to be 32.7 nM; on JAK1, 11.3 nM; at TYK2, 518 nM; at JAK3 it was 46 nM.

In the case of `O=C(NCCc1ccccc1)C1CCN(c2ncnc3[nH]ccc23)CC12CC2` (centres unmarked) [Example 114, N-phenethyl-5-(7H-pyrrolo[2,3-d]pyrimidin-4-yl)-5-azaspiro[2.5]octane-8-carboxamide], the EC50 on JAK2 came to 37 nM; at JAK1, 11.7 nM; on TYK2 it was 858 nM; at JAK3, 64.8 nM.

Regarding `CC(CO)(NC(=O)C1CCN(c2ncnc3[nH]ccc23)CC12CC2)c1ccccc1` (centres unmarked) [Example 118, N-(2-hydroxy-1-methyl-1-phenyl-ethyl)-5-(7H-pyrrolo[2,3-d]pyrimidin-4-yl)-5-azaspiro[2.5]octane-8-carboxamide], the EC50 came to 24.3 nM at JAK2, 13.1 nM at JAK1, 832 nM on TYK2 and 77.7 nM on JAK3.

Consider `N#Cc1cccc([C@H](CO)NC(=O)[C@H]2CCN(c3ncnc4[nH]ccc34)CC23CC3)c1` [Example 67, (8S)-N-[(1R)-1-(3-cyanophenyl)-2-hydroxy-ethyl]-5-(7H-pyrrolo[2,3-d]pyrimidin-4-yl)-5-azaspiro[2.5]octane-8-carboxamide], for which the EC50 on JAK2 worked out at 5.2 nM; on JAK1, 5.1 nM; at TYK2, 45 nM; on JAK3, 13.8 nM.

Take `O=C(N[C@H](CO)Cc1ccccc1)C1CCN(c2ncnc3[nH]ccc23)CC12CC2` (stereo partly drawn) [Example 141, N-[(1S)-1-benzyl-2-hydroxy-ethyl]-5-(7H-pyrrolo[2,3-d]pyrimidin-4-yl)-5-azaspiro[2.5]octane-8-carboxamide]: the EC50 stood at 81.6 nM at JAK2, 41.2 nM on JAK1, 4160 nM on TYK2 and 52 nM at JAK3.

For `N#C[C@@H]1C[C@H]1CNC(=O)C1CCN(c2ncnc3[nH]ccc23)CC12CC2` (stereo partly drawn) [Example 102, N-[[(1R,2R)-2-cyanocyclopropyl]methyl]-5-(7H-pyrrolo[2,3-d]pyrimidin-4-yl)-5-azaspiro[2.5]octane-8-carboxamide], the EC50 is 26.2 nM on JAK2, 9.5 nM at JAK1, 531 nM on TYK2 and 35 nM at JAK3.

For the molecule `COc1cc(C#N)ccc1[C@H](C)NC(=O)[C@H]1CCN(c2ncnc3[nH]ccc23)CC12CC2` [Example 97, (8S)-N-[(1S)-1-(4-cyano-2-methoxy-phenyl)ethyl]-5-(7H-pyrrolo[2,3-d]pyrimidin-4-yl)-5-azaspiro[2.5]octane-8-carboxamide], the 50% effective concentration (EC50) at JAK2 was 36 nM; at JAK1, 8.7 nM; on TYK2, 315 nM; at JAK3 it was 226 nM.

Consider `O=C(OCc1ccccc1)[C@H](CO)NC(=O)[C@H]1CCN(c2ncnc3[nH]ccc23)CC12CC2` [Example 138, Benzyl (2S)-3-hydroxy-2-[[(8S)-5-(7H-pyrrolo[2,3-d]pyrimidin-4-yl)-5-azaspiro[2.5]octane-8-carbonyl]amino]propanoate], for which the EC50 on JAK2 turned out to be 112 nM; at JAK1 it was 38.2 nM; on TYK2, 1100 nM; on JAK3, 90.9 nM.

`O=C(NCC1(O)CCCC1)C1CCN(c2ncnc3[nH]ccc23)CC12CC2` (centres unmarked) [Example 88, N-[(1-hydroxycyclopentyl)methyl]-5-(7H-pyrrolo[2,3-d]pyrimidin-4-yl)-5-azaspiro[2.5]octane-8-carboxamide]: the EC50 at JAK2 stood at 23.7 nM; at JAK1, 7.2 nM; on TYK2, 407 nM; at JAK3, 58.6 nM.

For the origin of these results see US10799507B2, “5-(7H-pyrrolo[2,3-d]pyrimidin-4-yl)-5-azaspiro[2.5]octane-8-carboxylic acid derivatives as novel JAK kinase inhibitors” (LEO Pharma A/S, priority 2017, dated 2020).
